From the NIST ThermoML archive (doi:10.1021/je060271a)
Several values for one entry are separate records, joined by “and”; a condition that tells them apart may be missing. Equal entries are not always repeated.

Conditions: 343.16 K, Liquid, Vibrating tube method

CCCCCC(=O)OCC(COC(=O)CCCCC)(COC(=O)CCCCC)COC(=O)CCCCC [pentaerythritol tetrahexanoate]
Conditions | mass density
251.1 kPa | 957.3 kg/m3 and 957.2 kg/m3
254 kPa | 957.3 kg/m3 and 957.1 kg/m3
254.2 kPa | 957.2 kg/m3
254.4 kPa | 957.3 kg/m3
254.5 kPa | 957.3 kg/m3
255.8 kPa | 957.3 kg/m3
255.9 kPa | 957.3 kg/m3
256.3 kPa | 957.3 kg/m3
258.5 kPa | 957.2 kg/m3
258.7 kPa | 957.2 kg/m3
258.9 kPa | 957.3 kg/m3
259.1 kPa | 957.2 kg/m3
260.1 kPa | 957.2 kg/m3 and 957.3 kg/m3
263.7 kPa | 957.2 kg/m3
264.3 kPa | 957.3 kg/m3
264.6 kPa | 957.3 kg/m3
264.8 kPa | 957.2 kg/m3
265 kPa | 957.2 kg/m3
265.1 kPa | 957.3 kg/m3
265.5 kPa | 957.2 kg/m3
265.7 kPa | 957.3 kg/m3
266 kPa | 957.2 kg/m3
266.2 kPa | 957.3 kg/m3 and 957.2 kg/m3
266.5 kPa | 957.3 kg/m3
266.7 kPa | 957.3 kg/m3
267 kPa | 957.3 kg/m3
267.2 kPa | 957.4 kg/m3
267.6 kPa | 957.2 kg/m3
267.7 kPa | 957.3 kg/m3 and 957.4 kg/m3
268.3 kPa | 957.4 kg/m3
268.4 kPa | 957.2 kg/m3 and 957.3 kg/m3
268.6 kPa | 957.3 kg/m3
269.1 kPa | 957.2 kg/m3 and 957.3 kg/m3
269.5 kPa | 957.3 kg/m3
269.8 kPa | 957.2 kg/m3
270.2 kPa | 957.3 kg/m3
270.3 kPa | 957.3 kg/m3
270.5 kPa | 957.3 kg/m3
271.4 kPa | 957.4 kg/m3
271.6 kPa | 957.2 kg/m3 and 957.3 kg/m3
271.7 kPa | 957.4 kg/m3
272.1 kPa | 957.2 kg/m3 and 957.3 kg/m3
272.3 kPa | 957.3 kg/m3
272.6 kPa | 957.3 kg/m3
273 kPa | 957.3 kg/m3
273.3 kPa | 957.3 kg/m3
274.7 kPa | 957.1 kg/m3
274.9 kPa | 957.4 kg/m3
275 kPa | 957.2 kg/m3
276.9 kPa | 957.4 kg/m3
279.9 kPa | 957.2 kg/m3
280.2 kPa | 957.4 kg/m3
280.4 kPa | 957.3 kg/m3 and 957.4 kg/m3
280.6 kPa | 957.3 kg/m3
280.9 kPa | 957.2 kg/m3 and 957.3 kg/m3
281.3 kPa | 957.3 kg/m3
281.5 kPa | 957.3 kg/m3
281.8 kPa | 957.2 kg/m3 and 957.4 kg/m3
282.3 kPa | 957.4 kg/m3
282.7 kPa | 957.4 kg/m3
282.9 kPa | 957.3 kg/m3
283 kPa | 957.3 kg/m3
283.4 kPa | 957.3 kg/m3
283.9 kPa | 957.2 kg/m3
284.2 kPa | 957.3 kg/m3
284.4 kPa | 957.3 kg/m3
284.7 kPa | 957.3 kg/m3
284.8 kPa | 957.3 kg/m3
285.4 kPa | 957.3 kg/m3
290.3 kPa | 957.4 kg/m3
290.5 kPa | 957.3 kg/m3 and 957.4 kg/m3
290.7 kPa | 957.4 kg/m3
293.8 kPa | 957.1 kg/m3
294 kPa | 957.4 kg/m3
294.3 kPa | 957.2 kg/m3
294.7 kPa | 957.2 kg/m3
294.8 kPa | 957.2 kg/m3
295.2 kPa | 957.2 kg/m3
295.5 kPa | 957.3 kg/m3
295.9 kPa | 957.3 kg/m3
296.4 kPa | 957.2 kg/m3
299.9 kPa | 957.4 kg/m3 and 957.3 kg/m3
300 kPa | 957.4 kg/m3
300.2 kPa | 957.4 kg/m3
300.6 kPa | 957.2 kg/m3
300.7 kPa | 957.3 kg/m3
300.9 kPa | 957.2 kg/m3
301.1 kPa | 957.2 kg/m3
301.3 kPa | 957.3 kg/m3
301.6 kPa | 957.4 kg/m3 and 957.3 kg/m3
302.1 kPa | 957.3 kg/m3 and 957.4 kg/m3
302.5 kPa | 957.2 kg/m3
302.7 kPa | 957.3 kg/m3
303 kPa | 957.3 kg/m3
303.2 kPa | 957.2 kg/m3
304.2 kPa | 957.3 kg/m3
304.6 kPa | 957.2 kg/m3
304.7 kPa | 957.4 kg/m3
305.1 kPa | 957.2 kg/m3
305.4 kPa | 957.4 kg/m3
307.2 kPa | 957.3 kg/m3
310.1 kPa | 957.3 kg/m3
310.3 kPa | 957.4 kg/m3
310.5 kPa | 957.3 kg/m3
310.6 kPa | 957.4 kg/m3
312.2 kPa | 957.3 kg/m3
312.6 kPa | 957.2 kg/m3
313.1 kPa | 957.4 kg/m3
313.6 kPa | 957.4 kg/m3
313.9 kPa | 957.4 kg/m3
314.3 kPa | 957.4 kg/m3
314.5 kPa | 957.4 kg/m3
314.6 kPa | 957.2 kg/m3
314.8 kPa | 957.4 kg/m3
315.3 kPa | 957.3 kg/m3
315.5 kPa | 957.4 kg/m3
317.1 kPa | 957.4 kg/m3
317.4 kPa | 957.3 kg/m3
318.1 kPa | 957.3 kg/m3
321.6 kPa | 957.4 kg/m3
322.1 kPa | 957.4 kg/m3
325.6 kPa | 957.3 kg/m3
328.2 kPa | 957.3 kg/m3
328.7 kPa | 957.4 kg/m3
328.9 kPa | 957.3 kg/m3
329.2 kPa | 957.4 kg/m3
329.6 kPa | 957.3 kg/m3
329.9 kPa | 957.2 kg/m3
330.1 kPa | 957.4 kg/m3
330.6 kPa | 957.3 kg/m3
330.8 kPa | 957.3 kg/m3
331.3 kPa | 957.4 kg/m3
331.5 kPa | 957.4 kg/m3 and 957.3 kg/m3
332 kPa | 957.3 kg/m3
332.4 kPa | 957.3 kg/m3
332.5 kPa | 957.3 kg/m3
332.9 kPa | 957.3 kg/m3
337.1 kPa | 957.2 kg/m3
337.6 kPa | 957.4 kg/m3
337.8 kPa | 957.3 kg/m3
344.9 kPa | 957.4 kg/m3
345.2 kPa | 957.4 kg/m3 and 957.3 kg/m3
345.9 kPa | 957.4 kg/m3
346.4 kPa | 957.5 kg/m3
353.7 kPa | 957.3 kg/m3 and 957.4 kg/m3
